From paper PMC9317966, “Structure-function analysis of the AMPK activator SC4 and identification of a potent pan AMPK activator” (Biochemical Journal, 2022)

Columns and labels:
[1] = target: T1, GST-α1β1γ1 AMPK in solution (Homo sapiens, UniProt Q13131+Q9Y478); assay: In solution SAMS kinase assay, HEK293T/17-expressed GST-α1β1γ1 eluted from glutathione Sepharose; format: biochemical; conditions: for EC50: 0-30 µM activator
T1 construct: triply transfected with full-length AMPK α1 or α2 (NH2-terminal GST fusion, pDEST27 vector); full-length AMPK α1 or α2 (NH2-terminal GST fusion, pDEST27 vector), β1 or β2 (COOH-terminal FLAG fusion, pcDNA3.1 vector); FLAG (C); made in house; host or cells: HEK293T/17 cells, transient triple transfection
Procedure: (§1) Adherent HEK293T/17 cells at ∼50% confluency were triply transfected with full-length AMPK α1 or α2 (NH2-terminal GST fusion, pDEST27 vector), β1 or β2 (COOH-terminal FLAG fusion, pcDNA3.1 vector), and γ1, γ2 or γ3 (NH2-terminal HA fusion, pMT2 vector) in the presence of FuGENE HD transfection reagent (Promega) as per the manufacturers protocol. Cells were harvested 48 hours post-transfection by first gently washing in ice cold phosphate buffered saline (PBS; Sigma–Aldrich), then scraping in ice cold lysis buffer (50 mM TRIS pH 7.5, 150 mM NaCl, 10% (v/v) glycerol, 50 mM NaF, 5 mM sodium pyrophosphate, 1% (v/v) Triton X-100, cOmplete protease inhibitor cocktail). Lysates were clarified by centrifugation (16 000g, 3 min, 4°C), flash frozen in liquid N2 and stored at −80°C until analysis. For radioactive kinase assays, AMPK was immobilised on glutathione Sepharose 4B resin (GE Healthcare) by incubation with lysates for 1.5 h at 4°C. Following centrifugation (1000g, 3 min, 4°C), the resin was washed twice in purification buffer (50 mM HEPES pH 7.4, 150 mM NaCl, 10% (v/v) glycerol, 0.02% (v/v) Tween-20), once in 50 mM HEPES pH 7.4 with 0.02% (v/v) Tween-20, then resuspended to a 50% slurry with 50 mM HEPES pH 7.4 and 10 µl added to the activity assays. For in solution kinase assays, α1β1γ1 AMPK was eluted from glutathione-Sepharose by incubating with purification buffer supplemented with 40 mM reduced glutathione (Sigma–Aldrich).
(§2) AMPK activity was determined by phosphorylation of the SAMS peptide (Purar Chemicals, sequence: NH2-HMRSAMSGLHLVKRR-COOH) in a 25 µl reaction volume containing 100 µM SAMS peptide, 5 mM MgCl2, 200 µM ATP, [γ-^32P]-ATP (PerkinElmer) and assay buffer (50 mM HEPES pH 7.4, 1 mM DTT and 0.02% (v/v) Tween-20) and purified AMPK. Phosphotransferase activity was conducted at 30°C for 10 min and reactions were quenched by spotting 15 µl onto phosphocellulose ion-exchange chromatography paper (made in-house), followed by repeated washes in 1% H3PO4 (Merck Millipore). Ultima Gold liquid scintillation fluid (5 ml; PerkinElmer) was added to vials containing dried phosphocellulose papers, and the level of ^32P-transfer to the SAMS peptide was determined using a Tri-Carb 2900TR liquid scintillation counter (PerkinElmer).
⍺1β1γ1 – in solution E. coli-expressed ⍺2β1γ1 […]
log [compound] (M) log [compound] (M)
Compound EC (nM) Max. fold Compound EC50 (nM) Max. fold
Supplementary Figure 3. In solution activation kinetics for AMPK complexes. Related to Figure 2. Activities measured in the presence of 0-30 µM AMPK activators. […]

[2] = target: T2, human GST-AMPK α1β1γ1 (Homo sapiens, UniProt Q13131+Q9Y478); assay: Radiolabel SAMS kinase assay, GST-AMPK from HEK293T/17 cells immobilised on glutathione-Sepharose; format: biochemical; conditions: for Max. fold activation: immobilised α1β1γ1; for EC50: immobilised α1β1γ1, 0–30 µM activator
T2 construct: triply transfected with full-length AMPK α1 or α2 (NH2-terminal GST fusion, pDEST27 vector); full-length AMPK α1 or α2 (NH2-terminal GST fusion, pDEST27 vector), β1 or β2 (COOH-terminal FLAG fusion, pcDNA3.1 vector); FLAG (C); made in house; host or cells: HEK293T/17 cells, transient triple transfection
Excerpt: We generated a series of compounds to investigate whether modification of the SC4 2-hydroxybiphenyl LHS fragment affects isoform selectivity, some of which (MSG008-MSG011) are presented in Table 1. We also synthesised compound MSG012 (example I-3-54 [32]), which was reported to activate α2β2γ1 with ∼100-fold greater potency compared with α1β1γ1. MSG012 differs from SC4 by substitution of the 2-hydroxyphenyl LHS fragment with 3-cyclohexen-4-yl-1-carboxylic acid, and 2-methylbenzoic acid RHS fragment with 1-hydroxy-N,N-dimethylcyclohexan-4-yl-1-carboxamide. Our initial screen involved measuring the activity of recombinant human GST-AMPK complexes expressed in HEK293T/17 cells and immobilised on glutathione-Sepharose (Supplementary Figure S1). Enzyme activity was measured by radiolabelling the synthetic SAMS peptide substrate in the absence or presence of 1 µM compound. Consistent with our previous characterisation, SC4 activated α1β1γ1, α2β1γ1 and α2β2γ1 >2.3-fold, and weakly activated α1β2γ1 1.3-fold (Figure 1A). […] The γ isoform had little influence on AMPK activation by MSG011 as most γ2 and γ3 complexes were activated >2.2-fold at 1 µM, with α1β2γ2 being the only exception (1.6-fold activation). […] Accordingly, MSG010, MSG011 and MSG012 can be classified as pan AMPK activators.
as §1, §2

[3] = target: T3, human GST-AMPK α2β1γ1 (Homo sapiens, UniProt P54646+Q9Y478); assay: as above; format: biochemical; conditions: for Max. fold activation: immobilised α2β1γ1; for EC50: immobilised α2β1γ1, 0–30 µM activator
T3 construct: triply transfected with full-length AMPK α1 or α2 (NH2-terminal GST fusion, pDEST27 vector); full-length AMPK α1 or α2 (NH2-terminal GST fusion, pDEST27 vector), β1 or β2 (COOH-terminal FLAG fusion, pcDNA3.1 vector); FLAG (C); made in house; host or cells: HEK293T/17 cells, transient triple transfection

[4] = target: γ1AMPK complexes; assay: Radiolabel kinase assay, immobilised GST-tagged γ1AMPK (stated across γ1 complexes); format: biochemical, human
Excerpt: We directly compared in vitro potencies of pan activators by performing radiolabel kinase assays with γ1AMPK complexes. Initially, we used GST-tagged γ1AMPK expressed in HEK293T/17 cells and immobilised on glutathione-Sepharose (Figure 2 and Table 2). […] These assays used AMPK purified from Sf9 insect cells or E. coli that was pre-treated with CaMKK2. […] However, relative to immobilised GST-α2β1γ1 from HEK293T/17 cells, His-tagged and myristoylated α2β1γ1 AMPK (expressed in E. coli, CaMKK2-treated and assayed in solution) was at least 10-fold more sensitive to activation by both MK-8722 and MSG011 (Supplementary Figure S3B), indicating the GST-affinity tag or CaMKK2 treatment may exert some influence on sensitivity to these activators.
as §1
as §2, with “Phosphotransferase activity was conducted at 30°C for 10 min and reactions were quenched by spotting 15 µl onto phosphocellulose ion-exchange chromatography paper (made in-house), followed by repeated washes in 1% H3PO4 (Merck Millipore).” left out

T3 sequence (P54646 whole entry, the tested form may be a part): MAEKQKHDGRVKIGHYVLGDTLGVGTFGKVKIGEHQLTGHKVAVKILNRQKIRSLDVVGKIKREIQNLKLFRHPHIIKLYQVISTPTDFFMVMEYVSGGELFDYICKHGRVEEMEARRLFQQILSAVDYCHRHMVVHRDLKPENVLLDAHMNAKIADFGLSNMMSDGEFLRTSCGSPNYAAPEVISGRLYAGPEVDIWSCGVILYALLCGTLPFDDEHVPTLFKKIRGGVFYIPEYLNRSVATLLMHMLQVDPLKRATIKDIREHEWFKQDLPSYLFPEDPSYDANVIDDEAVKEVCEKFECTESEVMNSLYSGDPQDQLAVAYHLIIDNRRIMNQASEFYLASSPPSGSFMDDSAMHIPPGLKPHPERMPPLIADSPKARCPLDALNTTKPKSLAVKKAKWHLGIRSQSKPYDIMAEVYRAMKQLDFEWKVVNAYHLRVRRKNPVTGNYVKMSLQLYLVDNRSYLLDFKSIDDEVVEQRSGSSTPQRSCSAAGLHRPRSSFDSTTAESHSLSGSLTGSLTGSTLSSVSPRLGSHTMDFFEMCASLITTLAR
T3 sequence (Q9Y478 whole entry, the tested form may be a part): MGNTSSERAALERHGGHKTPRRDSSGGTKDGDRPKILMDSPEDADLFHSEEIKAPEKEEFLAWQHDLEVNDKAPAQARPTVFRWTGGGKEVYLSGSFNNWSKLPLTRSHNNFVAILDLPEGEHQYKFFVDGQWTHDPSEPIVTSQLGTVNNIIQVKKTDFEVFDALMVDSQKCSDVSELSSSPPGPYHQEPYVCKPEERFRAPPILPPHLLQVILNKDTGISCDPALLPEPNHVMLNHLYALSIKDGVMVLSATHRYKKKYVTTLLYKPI
T3 sequence (P54619 whole entry partner, the tested form may be a part): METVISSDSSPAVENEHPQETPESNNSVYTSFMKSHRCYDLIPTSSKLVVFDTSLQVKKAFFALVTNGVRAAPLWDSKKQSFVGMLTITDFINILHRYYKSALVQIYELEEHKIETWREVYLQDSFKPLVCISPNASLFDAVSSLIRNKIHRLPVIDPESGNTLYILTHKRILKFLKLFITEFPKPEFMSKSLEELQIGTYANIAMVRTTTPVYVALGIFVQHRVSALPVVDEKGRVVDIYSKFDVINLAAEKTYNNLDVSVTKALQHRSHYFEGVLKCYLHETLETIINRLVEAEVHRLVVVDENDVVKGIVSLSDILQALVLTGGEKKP
T2 sequence (Q13131 whole entry, the tested form may be a part): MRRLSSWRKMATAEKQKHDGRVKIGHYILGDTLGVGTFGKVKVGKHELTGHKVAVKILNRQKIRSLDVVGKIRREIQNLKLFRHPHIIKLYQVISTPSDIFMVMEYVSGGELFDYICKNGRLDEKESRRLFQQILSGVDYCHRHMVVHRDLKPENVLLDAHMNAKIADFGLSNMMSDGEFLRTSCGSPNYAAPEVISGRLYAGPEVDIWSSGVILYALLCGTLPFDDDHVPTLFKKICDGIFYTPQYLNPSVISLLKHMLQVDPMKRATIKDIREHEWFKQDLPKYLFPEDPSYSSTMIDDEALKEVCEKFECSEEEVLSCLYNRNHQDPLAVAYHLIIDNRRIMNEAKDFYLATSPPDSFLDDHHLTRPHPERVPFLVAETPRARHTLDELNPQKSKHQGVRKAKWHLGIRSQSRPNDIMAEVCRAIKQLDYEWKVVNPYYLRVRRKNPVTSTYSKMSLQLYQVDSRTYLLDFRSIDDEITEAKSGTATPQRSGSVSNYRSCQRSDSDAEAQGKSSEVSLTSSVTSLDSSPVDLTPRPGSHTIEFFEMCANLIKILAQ
T2 sequence (Q9Y478 whole entry, the tested form may be a part): as the sequence (Q9Y478 whole entry, the tested form may be a part) above
T2 sequence (P54619 whole entry partner, the tested form may be a part): as the sequence (P54619 whole entry partner, the tested form may be a part) above
T1 sequence (Q13131 whole entry, the tested form may be a part): as the sequence (Q13131 whole entry, the tested form may be a part) above
T1 sequence (Q9Y478 whole entry, the tested form may be a part): as the sequence (Q9Y478 whole entry, the tested form may be a part) above
T1 sequence (P54619 whole entry partner, the tested form may be a part): as the sequence (P54619 whole entry partner, the tested form may be a part) above

Row | Structure (SMILES) | Max. fold activation [1] [fold] | EC50 [1] [nM] | fold AMPK activation relative to vehicle ([2]; 1 µM compound) [fold] | Max. fold activation [2] [fold] | EC50 [2] [nM] | Max. fold activation [3] [fold] | EC50 [3] [nM] | EC50 fold higher than previously determined by high-throughput fluorescence-based assays in solution ([4]; compared with refs 17, 18) | EC50 ([4]; immobilised GST-γ1AMPK, read-out: EC50 values for γ1AMPK activation) [nM]
1 | CC(=O)NC1CC=C(c2ccc(-c3nc4nc(Oc5ccc(C)c(C(=O)O)c5)[nH]c4cc3Cl)cc2)CC1 (stereo not drawn) [MSG011, 5-((5-(4′-Acetamido-2′,3′,4′,5′-tetrahydro-[1,1′-biphenyl]-4-yl)-6-chloro-1H-imidazo[4,5-b]pyridin-2-yl)oxy)-2-methylbenzoic acid] | 2.6 | 25.2 | > 2.2 | 3.1 | 140 | 7.5 | 553 |  | 
2 | O[C@@H]1CO[C@H]2[C@@H]1OC[C@H]2Oc1nc2nc(-c3ccc(-c4ccccc4)cc3)c(Cl)cc2[nH]1 [MK-8722, reference compound] | 1.8 | 1740 |  | 2.2 | 1210 | 7.8 | 3250 | 100–1000 fold | 1200 to 5600
